# PubChem BioAssay (NCI)
# Where “and” joins values, the source holds several entries; their conditions need not be identical. Equal entries are not always repeated.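 96-well plates; 48 h exposure; 5 concentrations. Endpoints by linear interpolation between flanking doses. Not reached: highest tested concentration assigned. GI50 marks 50% less growth. Definition used: TGI = concentration required for complete inhibition of growth.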
# Assays:
# Test in all cases: growth of human tumour cells (NCI), 48 h
# A549 NSCLC = system: A549 NSCLC
# CAKI-1 renal = system: CAKI-1 renal
# CCRF-CEM leukemia = system: CCRF-CEM leukemia
# NCI-H23 lung = system: NCI-H23 lung
# NCI/ADR-RES ovarian = system: NCI/ADR-RES ovarian
# OVCAR-3 ovarian = system: OVCAR-3 ovarian
# SF-539 CNS = system: SF-539 CNS
# SR leukemia = system: SR leukemia
# UACC-257 melanoma = system: UACC-257 melanoma
# MALME-3M melanoma = system: MALME-3M melanoma
Compound,TGI (A549 NSCLC),TGI (CAKI-1 renal) [µM],TGI (CCRF-CEM leukemia) [µM],TGI (NCI-H23 lung) [µM],TGI (NCI/ADR-RES ovarian) [µM],TGI (OVCAR-3 ovarian),TGI (SF-539 CNS) [µM],TGI (SR leukemia) [µM],TGI (UACC-257 melanoma),GI50 (A549 NSCLC),GI50 (CAKI-1 renal),GI50 (CCRF-CEM leukemia) [µM],GI50 (MALME-3M melanoma),TGI (MALME-3M melanoma),GI50 (NCI-H23 lung) [µM],GI50 (OVCAR-3 ovarian),GI50 (SF-539 CNS) [µM],GI50 (UACC-257 melanoma),GI50 (NCI/ADR-RES ovarian) [µM],GI50 (SR leukemia) [µM]
CCn1ncc(N=O)c1N,> 100 µM,> 100,> 100,> 100,> 100,> 100 µM,> 100,> 100,> 100 µM,,,,,,,,,,,
O=C(NN1C(=O)CSC1c1c(Cl)cccc1Cl)C(O)c1ccccc1 (stereo not given),81.6 µM,> 100,> 100,> 100,,76.6 µM,> 100,,94.5 µM,21.2 µM,23.9 µM,43.7,31.7 µM,> 100 µM,19.9,21.3 µM,> 100,31 µM,,
O=C1c2ccc3c4c(ccc(c24)C(=O)N1CCNCc1ccccc1)C(=O)N(CCNCc1ccccc1)C3=O,8.77 µM,4.91,> 100,3.89,4.94,4.16 µM,3.64,,3.45 µM,1.87 µM,1.88 µM,2.51,,,1.86,1.91 µM,1.88,1.69 µM,1.81,
CCOC(=O)C(=O)C(C#N)c1ccc(Cl)cc1 (stereo not given),> 100 µM,> 100,,> 100,,> 100 µM,> 100,,> 100 µM,,,,,> 100 µM,,,,,,
CC1(C)C(CC(=O)O)CCCC1CC(=O)O (stereo not given),> 100 µM,> 100,> 100,> 100,> 100,> 100 µM,,> 100,> 100 µM,,,,,,,,,,,
Cc1cc(Cl)cc2c1NC(=O)C2(O)C(C(=O)c1ccccc1)c1ccccc1 (stereo not given),> 100 µM and 51.5 µM,> 100,81.5,> 100,,> 100 µM and 54.1 µM,39.7,,> 100 µM and 52.1 µM,97.1 µM and 22.6 µM,35.7 µM and > 100 µM,,91.5 µM and 22.7 µM,> 100 µM and 49.2 µM,,53 µM and 22.4 µM,,57 µM and 19.9 µM,,
O=C(O)CCC1c2[nH]c3ccccc3c2CCN1Cc1ccccc1 (stereo not given),> 100 µM,> 100,> 100,> 100,,> 100 µM,> 100,> 100,> 100 µM,,,,,> 100 µM,,,,,,
O=C(CC1(O)C(=O)Nc2ccccc21)c1ccccc1O (stereo not given),> 100 µM,> 100,,> 100,,> 100 µM,> 100,,> 100 µM,,,,,> 100 µM,,,,,,
CCN(CC)CC(O)c1cc(-c2ccc(Cl)cc2)nc2c(C)c(Cl)ccc12 (stereo not given),,2.69,5.03,3.3,3.16,2.9 µM,3.03,,3.81 µM,,1.29 µM,2.21,1.93 µM,3.98 µM,1.78,1.51 µM,1.49,2.12 µM,1.71,
N#Cc1cccc(C2C(=O)c3ccc(C(=O)c4ccc5c(c4)C(=O)N(c4ccc(Oc6ccc(N7C(=O)c8ccc(C(=O)c9ccc%10c(c9)C(=O)N(c9cccc(C#N)c9)C%10=O)cc8C7=O)cc6)cc4)C5=O)cc3C2=O)c1 (stereo not given),> 100 µM,,> 100,> 100,,> 100 µM,> 100,,> 100 µM,,,,,> 100 µM,,,,,,
N#CCCN(c1ccc(C=O)cc1)S(=O)(=O)c1ccccc1,> 100 µM,> 100,,,,> 100 µM,> 100,> 100,> 100 µM,,,,,> 100 µM,,,,,,
COc1ccc2nc3ccccc3c(NCCN(CCCl)CCCl)c2c1,10.7 µM,0.937,2.39,,,1.08 µM,,0.379,3.99 µM,,,,,3.01 µM,,,,,,
O=C(CC(=O)c1cccc([N+](=O)[O-])c1)C(=O)Nc1ccccc1,> 100 µM,> 100,> 100,> 100,,> 100 µM,> 100,,> 100 µM,,,,,> 100 µM,,,,,,
CN1C2(c3ccccc3)C(C(=O)c3ccccc3)=C(C(=O)c3ccccc3)C1(c1ccccc1)c1c(-c3ccccc3)sc(-c3ccccc3)c12,> 100 µM,> 100,> 100,> 100,,> 100 µM,> 100,> 100,> 100 µM,,,,,> 100 µM,,,,,,
Cc1ccc(NC(=O)CC2SC(=Nc3ccc(Cl)cc3)NC2=O)cc1C (stereo not given),34.3 µM,35.9,11,35.6,,33.2 µM,35.4,29.4,29.4 µM,,,,,33.2 µM,,,,,,
CCCCCCCCCCCCCCCCCC[S+](C)CC (stereo not given),,1.6,,3.2,37.2,2.33 µM,,,,,0.409 µM,,1.38 µM,3.45 µM,1.38,1.08 µM,,,11.4,
Cc1ccccc1-n1c(CCl)nc2ccc(Br)cc2c1=O,44.9 µM,3.75,4.78,25.3,,27.5 µM,21.8,> 24.9,32.2 µM,,,,,32.9 µM,,,,,,
CC(=O)Nc1cc2c3c(cccc3c1)-c1ccccc1-2,> 100 µM,23.8,> 100,> 100,> 100,> 100 µM,> 100,> 100,> 100 µM,3.72 µM,4 µM,0.992,,,38.5,52.2 µM,> 100,90.3 µM,26.1,28.6
COc1cc(N2CCC(N)CC2)ccc1Nc1ncc(Cl)c(-c2c[nH]c3ccccc23)n1,1.65 µM,2.1,7.15,3.06,4.11,3.71 µM,1.7,,2.34 µM,0.248 µM,0.335 µM,2.17,,,0.925,1.14 µM,0.437,1.02 µM,1.49,
CC1=C(C(=O)Nc2ccc(C)cc2)C(c2cccc([N+](=O)[O-])c2)C(C(=O)Nc2ccc(C)cc2)=C(C)N1,> 100 µM,> 100,50.7,70.4,,95.5 µM,36.9,65.6,56.7 µM,,,,,77.2 µM,,,,,,
